Experiment: Toxicity against mouse erythrocytes assessed as hemolytic activity
Assay type: cell-based, Erythrocyte
Conditions: read-out: ED50 (the source's name)

| Structure (SMILES) | HC50 [µM] |
| --- | --- |
| CC(C)[C@H](O)C(=O)C[C@@H](C)[C@H]1CC[C@H]2[C@@H]3C[C@H](O[C@H]4O[C@@H](C)[C@H](OS(=O)(=O)O)[C@@H](O)[C@@H]4O)[C@H]4C[C@@H](OS(=O)(=O)O)CC[C@]4(C)C3=CC[C@]12C [APHELASTEROSIDE C] | 190 |
| CC(=O)[C@H]1CC[C@H]2[C@@H]3C[C@H](O[C@H]4O[C@@H](C)[C@H](O)[C@@H](O)[C@@H]4O)[C@H]4C[C@@H](OS(=O)(=O)O)CC[C@]4(C)C3=CC[C@]12C [FORBESIDE E3] | 330 |
| CC(=O)[C@H]1CC[C@H]2[C@@H]3C[C@H](O[C@H]4O[C@@H](C)[C@H](OS(=O)(=O)O)[C@@H](O)[C@@H]4O)[C@H]4C[C@@H](OS(=O)(=O)O)CC[C@]4(C)C3=CC[C@]12C [CHELIFEROSIDE L1] | 175 |
| CC(C)CC(=O)C[C@](C)(O)[C@H]1CC[C@H]2[C@@H]3C[C@H](O)[C@H]4C[C@@H](OS(=O)(=O)O)CC[C@]4(C)C3=CC[C@@]21C [3-O-SULFOTHORNASTEROL A] | 110 |
| CC(C)[C@H](O)C(=O)C[C@@H](C)[C@H]1CC[C@H]2[C@@H]3C[C@H](O)[C@H]4C[C@@H](OS(=O)(=O)O)CC[C@]4(C)C3=CC[C@]12C [APHELAKETOTRIOL] | 40 |
| CC(=O)[C@H]1CC[C@H]2[C@@H]3C[C@H](O)[C@H]4C[C@@H](OS(=O)(=O)O)CC[C@]4(C)C3=CC[C@]12C | > 500 |
